Test results as given in paper PMC6352937, “Inhibition of protein phosphatase-1 and -2A by ellagitannins: structure-inhibitory potency relationships and influences on cellular systems” (Journal of Enzyme Inhibition and Medicinal Chemistry, 2019).

Assays:
PP2Ac = test: Protein phosphatase assay with 32P-MLC20, native PP2Ac; assay type: biochemical; conditions: native PP2Ac from rabbit skeletal muscle; 1 µM 32P-MLC20; 10 min preincubation; mean ± SD
Procedure: (§1) Protein phosphatase activity of either skeletal muscle PP1c or PP2Ac (1.9–2.2 nM), or rPP1cα or rPP1cδ (2.71–3.72 nM), or FLAG-MYPT1-PP1c (∼9 nM) was assayed at 30 °C in absence or presence of polyphenol compounds (0.1–100 µM) in 20 mM Tris/HCl (pH 7.4), 0.1% 2-mercaptoethanol (30 µL). The purified phosphatase samples or HeLa lysates in 300-fold dilution (1.8–3.6 µg/ml) in the presence or absence of 2 µM I2 were preincubated with increasing concentration of the polyphenol compounds (0–100 µM) for 10 min then the reaction was started by the addition of 1 µM ^32P-MLC20 and incubated for 10 min. Polyphenol-treated HeLa cells were washed then lysed in 50 mM Tris/HCl (pH 8.0), 150 mM NaCl, 1% (V/V) Triton X-100, 0.15% (w/v) protease inhibitor cocktail. The phosphatase activity was assayed with 1 µM ^32P-MLC20 for 30 s in 3-fold final dilution (0.24–0.43 mg/ml). The reactions were terminated by the addition of 200 µL of 10% trichloroacetic acid and 200 µL of 6 mg/mL BSA solution. The samples were centrifuged for 3 min at 10,000 rpm and the supernatants (370 µL) were transferred into scintillation vials and the radioactivity of the released ^32Pi was determined in Tri-Carb 2800TR scintillation counter.
(§2) The ellagitannins (Figure 1) assayed on the activity of PP1c or PP2Ac in this study are similar to PGG in composition, but they differ structurally in two important aspects: (i) all of them include hexahydroxydiphenoyl unit linked in various positions, except for pedunculagin which includes two of these linkages; (ii) tellimagrandin I, pedunculagin, and praecoxin B have free glycosidic hydroxyls, while GHG has an unmodified hydroxyl at position 3 of the glucopyranose ring. […] Inhibition of the phosphatase activity by ellagitannins in HeLa cell lysate was also assessed. First, we determined the activity of PP1 and PP2A in the lysates using I2 to inhibit PP1, and low concentration of OA (2 nM) to suppress PP2A specifically, in order to determine the contribution of PP1 and PP2A to the phosphatase activity of lysates (Figure 2(E)).
(§3) Figure 2. The effect of ellagitannins on the activity of PP1 and PP2A. Ellagitannins (0.1–100 µM) were preincubated with the phosphatase samples for 10 min and the phosphatase activity was determined in triplicates with 1 µM ^32P-MLC20 substrate as described in “Materials and methods” section. […] The effect of tellimagrandin I on the activity of rPP1cα (^) and rPP1cδ (●) (C), or FLAG-MYPT1-PP1cδ (▼) (D), or on the phosphatase activity of HeLa lysate in the presence of I2 (□) (F). The effect of I2 and OA on the phosphatase activity of HeLa lysate (E). Phosphatase activity in the absence of ellagitannins, I2 or OA was taken as 100%. Data are means ± SD (n = 3–5).

HeLa lysate = test: Phosphatase activity of HeLa cell lysate (32P-MLC20); assay type: biochemical, human; conditions: HeLa lysate in 300-fold dilution; 1 µM 32P-MLC20; mean ± SD
Procedure: as §1, §2, §3

PP1c = test: Protein phosphatase assay with 32P-MLC20, native PP1c; assay type: biochemical; conditions: native PP1c from rabbit skeletal muscle; 1 µM 32P-MLC20; 10 min preincubation; mean ± SD
Procedure: as §1, §2, §3

rPP1cα [1] = target: T1, rPP1cα (Homo sapiens, UniProt P62136); test: Isothermal titration calorimetry (ITC); assay type: binding; conditions: 25 °C
T1 construct: FLAG; made in house
Procedure: Isothermal titration calorimetry (ITC) experiments were carried out at 25 °C by a MicroCal ITC200 instrument. The assay buffer contains 25 mM Tris/HCl (pH 8.0), 100 mM NaCl, and 1 mM DTT. rPP1cα was dialysed in the assay buffer two times for two hours freshly prior to measurements and diluted to 5–10 µM then transferred into the sample cell of the calorimeter. Tellimagrandin I was diluted to 60–100 µM in the assay buffer and measured into the syringe. 18 times 2 µL ligand was then injected into the cell at a stirring rate of 300 rpm. The reference power was 5 µcal/sec and the assay buffer was loaded in the reference cell. The titration data were analysed with MicroCal ITC-Origin software using one sets of site model to obtain binding parameters of ligand-protein interaction.
(§4) Figure 3. […] The changes in either, the intrinsic fluorescence of unlabelled rPP1cα upon binding to tellimagrandin I and PGG, or changes in fluorescent signal from rPP1cα extrinsically labelled with NT647 dye upon binding with EGCG, were determined at a range of concentration of polyphenols, and the fractions bound are presented. Data points are means ± SD (n = 3).

HeLa cells [2] = test: HeLa cell viability, Alamar-blue assay; assay type: cell-based, human; conditions: 24 h incubation, serum free; 0-50 µM tested
Procedure: HeLa cells and tsa201 cells were cultured as recommended by the supplier. Prior to treatments HeLa cells were serum starved in MEM medium supplemented with 2 mM L-glutamine for 17 h. For phosphatase activity assay cells were treated with increasing concentration of polyphenol compounds (1–50 µM) for 1 h. To assess cell viability by Alamar-blue assay serum starved cells were treated with ellagitannins (1–50 µM) for 24 h in serum free MEM medium. The media was exchanged for resazurin (20 µM) containing serum free media and the cells were incubated for 2 h to enhance resorufin formation by the viable cells. The emission of resorufin was measured by a fluorimeter at 620 nm.
Figure 4. Distinct influence of ellagitannins on the survival and phosphatase activity of HeLa cells. The effect of tellimagrandin I and mahtabin A was assayed on the survival (A) and the phosphatase activity (B) of HeLa cells in 0–50 µM concentration range as detailed in Materials and methods. The cell survival and the phosphatase activity in the absence of ellagitannins were taken as 100%. Data represent means ± SD (n = 3). ANOVA *p < .05, **p < .01, ***p < .001, n.s.: not significant.

rPP1cα [3] = target: T1, rPP1cα; test: Microscale thermophoresis (MST); assay type: binding
Procedure: as §4

PP2A = test: Phosphatase activity of HeLa lysate in the presence of I2 (activity due to PP2A); assay type: biochemical, human; conditions: PP1 suppressed by 2 µM I2; up to the highest concentration applied (100 µM)
Procedure: as §1, with “Polyphenol-treated HeLa cells were washed then lysed in 50 mM Tris/HCl (pH 8.0), 150 mM NaCl, 1% (V/V) Triton X-100, 0.15% (w/v) protease inhibitor cocktail. The phosphatase activity was assayed with 1 µM ^32P-MLC20 for 30 s in 3-fold final dilution (0.24–0.43 mg/ml). The reactions were terminated by the addition of 200 µL of 10% trichloroacetic acid and 200 µL of 6 mg/mL BSA solution.” left out
as §2, with “First, we determined the activity of PP1 and PP2A in the lysates using I2 to inhibit PP1, and low concentration of OA (2 nM) to suppress PP2A specifically, in order to determine the contribution of PP1 and PP2A to the phosphatase activity of lysates (Figure 2(E)).” left out

HeLa cells [4] = test: Phosphatase activity of polyphenol-treated HeLa cells; assay type: cell-based, human; conditions: 1 h incubation; 0-50 µM tested
Procedure: as §1
HeLa cells and tsa201 cells were cultured as recommended by the supplier. […] The emission of resorufin was measured by a fluorimeter at 620 nm. […]

rPP1cδ [5] = target: T2, rPP1cδ (Homo sapiens, UniProt P62140); test: Surface plasmon resonance (SPR); assay type: binding; conditions: rPP1cδ immobilised on CM5 chip; 1:1 interaction model
T2 construct: hexahistidine; made in house

FLAG-MYPT1-PP1cδ complex = target: T3, FLAG-MYPT1-PP1cδ complex (Homo sapiens, UniProt P62140); test: Protein phosphatase assay, myosin phosphatase holoenzyme; assay type: biochemical; conditions: holoenzyme ~9 nM
T3 construct: its associated proteins (such as PP1cδ) were isolated from cell lysates; expressed in transfected cells; host or cells: tsA201 cells
Procedure: as §1, with “The reactions were terminated by the addition of 200 µL of 10% trichloroacetic acid and 200 µL of 6 mg/mL BSA solution.” left out
(§5) Figure 2. […] Ellagitannins (0.1–100 µM) were preincubated with the phosphatase samples for 10 min and the phosphatase activity was determined in triplicates with 1 µM ^32P-MLC20 substrate as described in “Materials and methods” section. […]

SNAP-25^Thr138 = test: Phosphorylation of SNAP-25 Thr138 in cortical synaptosomes (Western blot); assay type: cell-based, mouse; conditions: synaptosomes treated 45 min at 30 °C; ellagitannins 1-100 µM, TMC 10 µM
Procedure: (§6) Preparation of synaptosomes from murine brain cortex was carried out as described previously. Functional synaptosomes were kept in Krebs buffer (118 mM NaCl, 5 mM KCl, 25 mM NaHCO3, 1 mM MgCl2, 10 mM D-glucose, pH 7.4). After preparation, synaptosomes were treated with either tellimagrandin I or mahtabin A in 1, 10 or 100 µM final concentrations, or with 10 µM tautomycetin (TMC) for 45 min at 30 °C. After the treatments synaptosomes were applied for exocytosis assay or were lysed and the protein lysates were subjected to Western blot. For exocytosis assay an already established protocol[25] was used. FM 2–10 water-soluble styryl dye was incorporated first into the outer leaflet of synaptosome membrane, then into the synaptosomes. Exocytosis was induced by addition of 30 mM KCl to the synaptosomes. The fluorescent intensity of FM 2–10 styryl dye negatively correlated with the extent of synatposomal exocytosis and was measured by Fluoroskan FL (excitation: 488 nm, emission: 540 nm). Western blot of synaptosome proteins was carried out as described previously[24]^,[25].
Figure 5. […] E: Representative Western blot with anti- SNAP-25^pThr138 specific antibody. F: Relative changes in the amount of SNAP-25^pThr138 determined by densitometry of the Western blots normalised on the bands obtained for the loading controls. Data are means ± SD (n = 3). ANOVA *p < .05, **p < .01, ***p < .001, n.s.: not significant.

rPP1cα [6] = target: T1, rPP1cα; test: Protein phosphatase assay, recombinant rPP1cα; assay type: biochemical; conditions: purified recombinant FLAG-tagged PP1cα
Procedure: as §1, with “The reactions were terminated by the addition of 200 µL of 10% trichloroacetic acid and 200 µL of 6 mg/mL BSA solution.” left out
as §5

rPP1cδ [7] = target: T2, rPP1cδ; test: Protein phosphatase assay, recombinant rPP1cδ; assay type: biochemical; conditions: purified recombinant hexahistidine-tagged PP1cδ
Procedure: as §1, with “The reactions were terminated by the addition of 200 µL of 10% trichloroacetic acid and 200 µL of 6 mg/mL BSA solution.” left out
as §5

[8] = tested on: mouse cortical synaptosomes; test: KCl induced exocytosis of cortical synaptosomes (FM 2-10 dye); assay type: cell-based; conditions: 30 mM KCl; FM 2-10 fluorescence; 45 min treatment
Procedure: as §6
Figure 5. […] E: Representative Western blot with anti- SNAP-25^pThr138 specific antibody. F: Relative changes in the amount of SNAP-25^pThr138 determined by densitometry of the Western blots normalised on the bands obtained for the loading controls. Data are means ± SD (n = 3). […]

T1 sequence (P62136 whole entry): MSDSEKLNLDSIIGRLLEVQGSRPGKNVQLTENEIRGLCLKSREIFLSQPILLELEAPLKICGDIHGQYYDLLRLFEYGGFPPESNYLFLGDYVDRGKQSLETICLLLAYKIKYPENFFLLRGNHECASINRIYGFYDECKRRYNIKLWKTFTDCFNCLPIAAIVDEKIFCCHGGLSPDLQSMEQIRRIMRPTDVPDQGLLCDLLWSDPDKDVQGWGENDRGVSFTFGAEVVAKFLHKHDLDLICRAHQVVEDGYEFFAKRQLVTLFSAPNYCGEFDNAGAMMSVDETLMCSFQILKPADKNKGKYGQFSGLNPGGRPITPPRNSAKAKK
T2 sequence (P62140 whole entry): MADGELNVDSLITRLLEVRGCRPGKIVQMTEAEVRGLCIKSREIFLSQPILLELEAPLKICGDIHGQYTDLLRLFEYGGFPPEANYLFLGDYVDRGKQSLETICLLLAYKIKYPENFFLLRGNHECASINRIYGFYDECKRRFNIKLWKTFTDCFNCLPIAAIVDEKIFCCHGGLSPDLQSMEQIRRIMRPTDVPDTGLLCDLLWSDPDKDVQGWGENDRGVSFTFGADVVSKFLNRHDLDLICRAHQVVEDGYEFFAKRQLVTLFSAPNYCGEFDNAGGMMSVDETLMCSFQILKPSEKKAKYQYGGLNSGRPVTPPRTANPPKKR
T3 sequence (P62140 2-327 limits assumed): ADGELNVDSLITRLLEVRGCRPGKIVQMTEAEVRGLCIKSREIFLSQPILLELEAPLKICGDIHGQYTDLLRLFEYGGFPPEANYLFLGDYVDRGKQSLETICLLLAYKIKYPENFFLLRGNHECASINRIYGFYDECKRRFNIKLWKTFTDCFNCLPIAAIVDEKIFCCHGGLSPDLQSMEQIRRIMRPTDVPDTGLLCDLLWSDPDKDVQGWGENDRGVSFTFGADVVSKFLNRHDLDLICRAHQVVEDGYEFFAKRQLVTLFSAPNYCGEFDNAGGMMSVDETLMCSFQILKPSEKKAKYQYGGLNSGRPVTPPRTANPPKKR
T3 sequence (O14974 whole entry partner): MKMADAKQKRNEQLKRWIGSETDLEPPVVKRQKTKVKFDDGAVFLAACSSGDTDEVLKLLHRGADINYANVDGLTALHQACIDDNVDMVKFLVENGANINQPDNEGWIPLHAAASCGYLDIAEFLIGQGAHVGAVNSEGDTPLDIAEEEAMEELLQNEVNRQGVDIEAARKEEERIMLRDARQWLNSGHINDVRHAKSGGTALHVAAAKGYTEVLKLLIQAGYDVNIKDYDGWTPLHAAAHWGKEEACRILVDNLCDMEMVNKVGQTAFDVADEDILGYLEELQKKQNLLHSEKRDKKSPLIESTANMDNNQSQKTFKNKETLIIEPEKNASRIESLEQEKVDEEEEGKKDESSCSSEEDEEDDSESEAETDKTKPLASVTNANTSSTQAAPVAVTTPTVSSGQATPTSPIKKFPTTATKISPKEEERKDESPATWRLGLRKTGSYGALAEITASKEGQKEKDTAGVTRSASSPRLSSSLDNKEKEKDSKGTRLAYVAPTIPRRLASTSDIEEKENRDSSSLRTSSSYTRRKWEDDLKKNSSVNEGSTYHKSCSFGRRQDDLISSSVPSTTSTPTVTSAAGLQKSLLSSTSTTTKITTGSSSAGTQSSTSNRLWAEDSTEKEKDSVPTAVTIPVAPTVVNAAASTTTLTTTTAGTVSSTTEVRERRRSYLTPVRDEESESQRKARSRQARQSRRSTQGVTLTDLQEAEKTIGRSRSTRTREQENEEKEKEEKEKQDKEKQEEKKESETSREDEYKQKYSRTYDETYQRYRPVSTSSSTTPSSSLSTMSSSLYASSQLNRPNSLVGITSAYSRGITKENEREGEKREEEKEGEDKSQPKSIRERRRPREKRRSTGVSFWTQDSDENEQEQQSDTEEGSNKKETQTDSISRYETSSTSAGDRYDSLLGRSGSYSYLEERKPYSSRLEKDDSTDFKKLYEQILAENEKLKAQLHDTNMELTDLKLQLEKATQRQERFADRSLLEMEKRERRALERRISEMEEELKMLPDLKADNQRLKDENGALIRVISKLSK

O=C(OC[C@H]1OC(O)[C@@H]2OC(=O)c3cc(O)c(O)c(O)c3-c3c(cc(O)c(O)c3O)C(=O)O[C@H]2[C@@H]1OC(=O)c1cc(O)c(O)c(O)c1)c1cc(O)c(O)c(O)c1 (stereo partly shown) [praecoxin B]
IC50 (PP2Ac): 63900 ± 5520 nM
IC50 (HeLa lysate): 6970 ± 1120 nM
IC50 (PP1c): 790 ± 110 nM

O=C(O[C@H]1[C@@H]2OC(=O)c3cc(O)c(O)c(O)c3-c3c(cc(O)c(O)c3O)C(=O)OC[C@H]2OC(O)[C@@H]1OC(=O)c1cc(O)c(O)c(O)c1)c1cc(O)c(O)c(O)c1 (stereo partly shown) [tellimagrandin I]
Ka (ITC) (rPP1cα [1]): 4.68 ± 1.02x10^6 M^−1
S (ITC) (rPP1cα [1]): 0.0036 kcal/mol/K
N (ITC) (rPP1cα [1]; binding stoichiometry): 1.16 ± 0.03
Kd (rPP1cα [1]; one sets of site model): 230 nM
IC50 (PP2Ac): 19500 ± 8600 nM
IC50 (HeLa lysate): 4460 ± 950 nM
Effect on viability (survival) of HeLa cells (HeLa cells [2]): suppressed the viability of HeLa cells dramatically
Kd (rPP1cα [3]; unlabelled rPP1cα, intrinsic fluorescence (NT.LabelFree)): 1780 ± 590 nM
Inhibition of phosphatase activity due to PP2A in HeLa lysate (PP2A): slightly
Effect on phosphatase activity of HeLa cells (HeLa cells [4]): partially reduced the phosphatase activity
IC50 (PP1c): 200 ± 20 nM
Kd (rPP1cδ [5]): 310 nM
IC50 (FLAG-MYPT1-PP1cδ complex): 110 ± 20 nM
Effect on phosphorylation level of SNAP-25^Thr138 (SNAP-25^Thr138): had no any effect
IC50 (rPP1cα [6]): 230 ± 50 nM
IC50 (rPP1cδ [7]): 130 ± 20 nM
Effect on KCl induced synaptosomal exocytosis [8]: without any influence

epigallocatechin-3-gallate [EGCG]
Kd (rPP1cα [3]; rPP1cα labelled with NT-647 (NT.115)): 8200 ± 4300 nM

tautomycetin [TMC, reference compound]
Effect on phosphorylation level of SNAP-25^Thr138 (SNAP-25^Thr138): increased the amount of SNAP-25^pThr138
